{
  "source": "patent US9968649B2",
  "about": "“Vasopressin formulations for use in treatment of hypotension” (Par Pharmaceutical, Inc., priority 2015, dated 2018)",
  "origin": "cited, not measured here",
  "test_system": "healthy subjects",
  "conditions": "cited from earlier work",
  "data": [
    {"smiles": "CC[N+](CC)(CC)CC", "note": "[tetra-ethylammonium]", "values": [
      {"measurement": "increase of the pressor effect of vasopressin", "setting": "healthy subjects", "result": 20, "unit": "%"}
    ]},
    {"smiles": "FC(F)(F)C(Cl)Br", "note": "(stereo not shown) [Halothane]", "values": [
      {"measurement": "impact on exposure to endogenous vasopressin", "setting": "in vivo", "result": "do not impact exposure"}
    ]},
    {"smiles": "COc1ccc2c(c1)c(CC(=O)O)c(C)n2C(=O)c1ccc(Cl)cc1", "note": "[Indomethacin]", "values": [
      {"measurement": "time to offset for vasopressin's effect on peripheral vascular resistance and cardiac output", "setting": "co-administered with vasopressin, healthy subjects", "result": "more than doubles"}
    ]},
    {"smiles": "NS(=O)(=O)c1cc(C(=O)O)c(NCc2ccco2)cc1Cl", "note": "[Furosemide]", "values": [
      {"measurement": "increase of urine flow", "setting": "co-administered with exogenous vasopressin, healthy subjects", "result": 9, "unit": "fold"}
    ]}
  ]
}
